# System: HCT116 colorectal cancer cells
# Experiment: Cisplatin sensitization assay (96 h cell viability MTS);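 note: Test-compound concentration that lowers the Cisplatin IC50 by a set fold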
# Type: cell-based
# Conditions: compound and Cisplatin added simultaneously, Cisplatin sensitization value
# Experimental: Compounds can be screened for their ability to sensitize HCT116 colorectal cancer cells to Cisplatin using a 96 h cell viability (MTS) assay. […] Compounds and Cisplatin are then both added simultaneously to the cell media in 2-fold serial dilutions from a top final concentration of 10 μM as a full matrix of concentrations in a final cell volume of 200 μl, and the cells are then incubated at 37° C. in 5% CO2. After 96 h, 40 μl of MTS reagent (Promega G358a) is added to each well and the cells are incubated for 1 h at 37° C. in 5% CO2.
# Compounds with a Cisplatin sensitization value of <0.02 μM are marked with “+++.” Compounds with a Cisplatin sensitization value>0.02 μM but <0.2 μM are marked with “++.” Compounds with a Cisplatin sensitization value>0.2 μM but <5 μM are marked with “+.”
row,Compound,Cisplatin Sensitization Assay
1,"Nc1nn2cc(F)cnc2c1C(=O)Nc1cnccc1O[C@@H]1CN2CCC1CC2 [Compound I-0-10, (S)-2-amino-6-fluoro-N-(4-(quinuclidin-3-yloxy)pyridin-3-yl)pyrazolo[1,5-a]pyrimidine-3-carboxamide]",+++ (Cisplatin sensitization value of <0.02 μM)
2,"COC1CCN(c2ccncc2NC(=O)c2c(N)nn3cc(F)cnc23)CC1 [I-N-266, 2-amino-6-fluoro-N-(4-(4-methoxypiperidin-1-yl)pyridin-3-yl)pyrazolo[1,5-a]pyrimidine-3-carboxamide]",+++ (Cisplatin sensitization value of <0.02 μM)
3,"Nc1nn2cc(F)cnc2c1C(=O)Nc1cncc(F)c1N1CCC(N2CCCC2=O)CC1 [I-N-147, 2-amino-6-fluoro-N-(5-fluoro-4-(4-(2-oxopyrrolidin-1-yl)piperidin-1-yl)pyridin-3-yl)pyrazolo[1,5-a]pyrimidine-3-carboxamide]",+++ (Cisplatin sensitization value of <0.02 μM)
4,"Nc1nn2cc(F)cnc2c1C(=O)Nc1cnccc1N1CCN(C2COC2)C2CC21 (stereo not shown) [I-N-112, 2-amino-6-fluoro-N-(4-(5-(oxetan-3-yl)-2,5-diazabicyclo[4.1.0]heptan-2-yl)pyridin-3-yl)pyrazolo[1,5-a]pyrimidine-3-carboxamide]",+ (Cisplatin sensitization value>0.2 μM but <5 μM)
5,"CN(C)CC1CCN(c2ccncc2NC(=O)c2c(N)nn3cc(Cl)cnc23)CC1 [I-N-45, 2-amino-6-chloro-N-(4-(4-((dimethylamino)methyl)piperidin-1-yl)pyridin-3-yl)pyrazolo[1,5-a]pyrimidine-3-carboxamide]",++ (Cisplatin sensitization value>0.02 μM but <0.2 μM)
6,"CC1CN(c2ccncc2NC(=O)c2c(N)nn3cc(Cl)cnc23)CCN1C (stereo not shown) [I-N-54, 2-amino-6-chloro-N-(4-(3,4-dimethylpiperazin-1-yl)pyridin-3-yl)pyrazolo[1,5-a]pyrimidine-3-carboxamide]",+++ (Cisplatin sensitization value of <0.02 μM)
7,"COCCN1CCN(c2ccncc2NC(=O)c2c(N)nn3cc(Cl)cnc23)CC1 [I-N-60, 2-amino-6-chloro-N-(4-(4-(2-methoxyethyl)piperazin-1-yl)pyridin-3-yl)pyrazolo[1,5-a]pyrimidine-3-carboxamide]",+++ (Cisplatin sensitization value of <0.02 μM)
8,"CN(C)CCOc1ccncc1NC(=O)c1c(N)nn2cc(CC#N)cnc12 [I-O-24, 2-amino-6-(cyanomethyl)-N-(4-(2-(dimethylamino)ethoxy)pyridin-3-yl)pyrazolo[1,5-a]pyrimidine-3-carboxamide]",++ (Cisplatin sensitization value>0.02 μM but <0.2 μM)
9,"Nc1nn2cc(F)cnc2c1C(=O)Nc1cncc(C2CC2)c1N1CCN([C@@H]2CCOC2)CC1 [I-N-119, (R)-2-amino-N-(5-cyclopropyl-4-(4-(tetrahydrofuran-3-yl)piperazin-1-yl)pyridin-3-yl)-6-fluoropyrazolo[1,5-a]pyrimidine-3-carboxamide]",++ (Cisplatin sensitization value>0.02 μM but <0.2 μM)
10,"CN1CCN2CCN(c3ccncc3NC(=O)c3c(N)nn4cc(F)cnc34)CC2C1=O (stereo not shown) [I-N-233, 2-amino-6-fluoro-N-(4-(8-methyl-9-oxohexahydro-1H-pyrazino[1,2-a]pyrazin-2(6H)-yl)pyridin-3-yl)pyrazolo[1,5-a]pyrimidine-3-carboxamide]",++ (Cisplatin sensitization value>0.02 μM but <0.2 μM)
11,"Cc1cncc(NC(=O)c2c(N)nn3cc(F)cnc23)c1N1CCN(C2COC2)CC1 [I-N-16, 2-amino-6-fluoro-N-(5-methyl-4-(4-(oxetan-3-yl)piperazin-1-yl)pyridin-3-yl)pyrazolo[1,5-a]pyrimidine-3-carboxamide]",+++ (Cisplatin sensitization value of <0.02 μM)
12,Cc1cncc(NC(=O)c2c(N)nn3cc(F)cnc23)c1-n1nccc1C [I-N-237],+ (Cisplatin sensitization value>0.2 μM but <5 μM)
13,"CN(C)Cc1ccc(Oc2ccncc2NC(=O)c2c(N)nn3cc(F)cnc23)cn1 [I-O-3, 2-amino-N-(4-((6-((dimethylamino)methyl)pyridin-3-yl)oxy)pyridin-3-yl)-6-fluoropyrazolo[1,5-a]pyrimidine-3-carboxamide]",++ (Cisplatin sensitization value>0.02 μM but <0.2 μM)
14,"CCN1CCCC1C(=O)N1CCN(c2c(F)cncc2NC(=O)c2c(N)nn3cc(F)cnc23)CC1 (stereo not shown) [I-N-185, 2-amino-N-(4-(4-(1-ethylpyrrolidine-2-carbonyl)piperazin-1-yl)-5-fluoropyridin-3-yl)-6-fluoropyrazolo[1,5-a]pyrimidine-3-carboxamide]",++ (Cisplatin sensitization value>0.02 μM but <0.2 μM)
15,"Cc1cncc(NC(=O)c2c(N)nn3cc(F)cnc23)c1N1CCC(C(=O)N2CCN(C)CC2)CC1 [I-G-55, 2-amino-6-fluoro-N-(5-methyl-4-(4-(4-methylpiperazine-1-carbonyl)piperidin-1-yl)pyridin-3-yl)pyrazolo[1,5-a]pyrimidine-3-carboxamide]",+++ (Cisplatin sensitization value of <0.02 μM)
16,"N#CCc1cnc2c(C(=O)Nc3cnccc3OC3COC3)c(N)nn2c1 [I-O-38, 2-amino-6-(cyanomethyl)-N-(4-(oxetan-3-yloxy)pyridin-3-yl)pyrazolo[1,5-a]pyrimidine-3-carboxamide]",+++ (Cisplatin sensitization value of <0.02 μM)
17,"Nc1nn2cc(F)cnc2c1C(=O)Nc1cnccc1N1CCN2CCOC[C@@H]2C1 [I-N-115, (S)-2-amino-6-fluoro-N-(4-(hexahydropyrazino[2,1-c][1,4]oxazin-8(1H)-yl)pyridin-3-yl)pyrazolo[1,5-a]pyrimidine-3-carboxamide]",+++ (Cisplatin sensitization value of <0.02 μM)
18,"Cc1ccc(-c2ccncc2NC(=O)c2c(N)nn3cc(F)cnc23)cn1 [I-C-22, 2-amino-6-fluoro-N-(6-methyl-[3,4′-bipyridin]-3′-yl)pyrazolo[1,5-a]pyrimidine-3-carboxamide]",++ (Cisplatin sensitization value>0.02 μM but <0.2 μM)
19,"CN1CCCCC1C(=O)N1CCN(c2c(F)cncc2NC(=O)c2c(N)nn3cc(F)cnc23)CC1 (stereo not shown) [I-N-214, 2-amino-6-fluoro-N-(5-fluoro-4-(4-(1-methylpiperidine-2-carbonyl)piperazin-1-yl)pyridin-3-yl)pyrazolo[1,5-a]pyrimidine-3-carboxamide]",++ (Cisplatin sensitization value>0.02 μM but <0.2 μM)
20,"CS(=O)(=O)N1CCN(c2ccncc2NC(=O)c2c(N)nn3cc(F)cnc23)CC1 [I-N-178, 2-amino-6-fluoro-N-(4-(4-(methylsulfonyl)piperazin-1-yl)pyridin-3-yl)pyrazolo[1,5-a]pyrimidine-3-carboxamide]",+++ (Cisplatin sensitization value of <0.02 μM)
21,"Nc1nn2cc(F)cnc2c1C(=O)Nc1cnccc1N1CCN2CCC[C@H]2C1 [I-N-21, (S)-2-amino-6-fluoro-N-(4-(hexahydropyrrolo[1,2-a]pyrazin-2(1H)-yl)pyridin-3-yl)pyrazolo[1,5-a]pyrimidine-3-carboxamide]",+++ (Cisplatin sensitization value of <0.02 μM)
22,"CN1CCN(c2c(F)cncc2NC(=O)c2c(N)nn3cc(F)cnc23)CC1 [I-N-15, 2-amino-6-fluoro-N-(5-fluoro-4-(4-methylpiperazin-1-yl)pyridin-3-yl)pyrazolo[1,5-a]pyrimidine-3-carboxamide]",+++ (Cisplatin sensitization value of <0.02 μM)

# Source: patent US11370798B2 (Vertex Pharmaceuticals Incorporated, priority 2012, dated 2022)
